The record followed here is patent EP4706404A1, “MICROENCAPSULATED NATURAL PRESERVATIVE AND ANTIOXIDANT FOR FATTY FOODS, WITH WALNUT HUSK AND WALNUT TREE LEAF EXTRACT” (Universidad Andres Bello, priority 2023, dated 2024).

One series has as its system Salmonella. Conditions: mayonnaise. The source says: (§1) Mayonnaise was made on a laboratory scale using mayonnaise powder, the flowchart is shown in Diagram 3. [formula]
(§2) Where the stability of mayonnaise without any antioxidant (control) was studied, the stability when using a frequently used synthetic antioxidant such as EDTA, and a microparticle of the invention for foods with more than 70% fat, which corresponds to Maltodextrin with capsule as a channeling agent (EH:MD-Capsule). The dose used was in accordance with the food safety regulations (FSR) and corresponded to 5.5 g of microparticles per 2 kilos of mayonnaise. […] Table 9. Mayonnaise formulation for stability tests.

Series [1] deals with mesophilic aerobic microorganisms (AMR). Conditions: mayonnaise.
Excerpt: as §1, §2

The subject of a further series is S. aureus. Conditions: mayonnaise.

Like-named read-outs stand apart in the source and are kept apart here.

Method for HEPG-2: The test consisted of evaluating the cytotoxic effect of walnut husk and leaf extract, in different concentrations, on viability in cell culture. For this, the HEPG-2 line was used as a cell matrix, which are immortalized human liver cells.
To evaluate the effect on viability in cell culture, an assay was performed with the Invitrogen MTT kit (Ref.V13154; lot:1924421), whose technique consists of a colorimetric analysis that measures the metabolic activity of the cell. This assay was carried out following the protocol provided by the kit supplier, using a 96-well plate with HEPG-2 cell culture with an approximate confluence of 80%. Taking the cytotoxic compound SDS 0.2% as a positive control and the cell culture with its medium as a negative control.

In the case of `CCCCCCCCCCCCOS(=O)(=O)[O-].[Na+]` [SDS], the Cell viability is on record as 3.94± 0.2% in the series with Caco-2 cells and 22.9% in the series on HEPG-2.

`O=C(O)CN(CCN(CC(=O)O)CC(=O)O)CC(=O)O` [synthetic, EDTA]: the “Salmonella Title” value with Salmonella (4°C, 6 days refrigeration) is reported as 0 CFU/gr; in the series on Salmonella (4°C, 13 days refrigeration) it was 0 CFU/gr; in the series on Salmonella (4°C, 20 days refrigeration), 0 CFU/gr; with Salmonella (4°C, 27 days refrigeration), 0 CFU/gr; with Salmonella (Time 0), 0 CFU/gr. The “day of conservation from which AMR were detected” value in series [1] (4°C) turned out to be 20 days. Besides, the “AMR Title” value is 0 CFU/gr in series [1] (4°C, 6 days refrigeration); 0 CFU/gr in series [1] (4°C, 13 days refrigeration); 2x10^4 CFU/gr in series [1] (4°C, 20 days refrigeration); 1.25 x 10^5 CFU/gr in series [1] (4°C, 27 days refrigeration); 0 CFU/gr in series [1] (Time 0). Further, the “day from which S. aureus develops” value with S. aureus (4°C) is 20 days. In addition, the “S. aureus Title” value in the series with S. aureus (4°C, 6 days refrigeration) is reported as 0 CFU/gr; in the series with S. aureus (4°C, 13 days refrigeration), 0 CFU/gr; with S. aureus (4°C, 27 days refrigeration), 1.15 x 10^4 CFU/gr; with S. aureus (Time 0), 0 CFU/gr.
